# Literature values in patent publication US8491930B2, “Pharmaceutical formulation containing ibuprofen and codeine” (Farmasierra Manufacturing, S.L., priority 2008, dated 2013).
smiles,measurement,value
"COc1ccc2c3c1OC1C(O)C=C[C@H]4[C@@H](C2)N(C)CC[C@]314 (stereo partly shown) [Codeine phosphate, 7,8-didehydro-4,5-epoxy-3-methoxy-17-methyl-morphinan-6-ol]",Solubility in water,soluble in water
